Results: PubChem BioAssay (NCI)
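Five compound concentrations were applied to cells in 96-well plates for 48 hours; endpoints were derived by simple linear interpolation of the resulting dose-response curve. TGI marks complete inhibition of growth.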

Columns and labels:
Assay in all cases: DTP human tumour cell line panel, 48 h
SNB-75 CNS = test system: SNB-75 CNS
RPMI-8226 leukemia = test system: RPMI-8226 leukemia
HS 578T breast = test system: HS 578T breast
MOLT-4 leukemia = test system: MOLT-4 leukemia
CCRF-CEM leukemia = test system: CCRF-CEM leukemia
SNB-19 CNS = test system: SNB-19 CNS
OVCAR-3 ovarian = test system: OVCAR-3 ovarian
KM20L2 colon = test system: KM20L2 colon
MDA-N = test system: MDA-N
SR leukemia = test system: SR leukemia
RXF 393 renal = test system: RXF 393 renal
OVCAR-4 ovarian = test system: OVCAR-4 ovarian
EKVX NSCLC = test system: EKVX NSCLC
BT-549 breast = test system: BT-549 breast
UO-31 renal = test system: UO-31 renal
SF-539 CNS = test system: SF-539 CNS
SK-MEL-28 melanoma = test system: SK-MEL-28 melanoma
PC-3 prostate = test system: PC-3 prostate
LXFL 529 NSCLC = test system: LXFL 529 NSCLC
A498 renal = test system: A498 renal
MCF7 breast = test system: MCF7 breast
HT29 colon = test system: HT29 colon
HCT-15 colon = test system: HCT-15 colon
NCI-H23 lung = test system: NCI-H23 lung
NCI-H226 lung = test system: NCI-H226 lung
NCI-H460 lung = test system: NCI-H460 lung
DMS 273 small cell lung = test system: DMS 273 small cell lung
TK-10 renal = test system: TK-10 renal
HL-60(TB) leukemia = test system: HL-60(TB) leukemia
LOX IMVI melanoma = test system: LOX IMVI melanoma
MALME-3M melanoma = test system: MALME-3M melanoma
NCI/ADR-RES ovarian = test system: NCI/ADR-RES ovarian
DMS 114 small cell lung = test system: DMS 114 small cell lung
SK-OV-3 ovarian = test system: SK-OV-3 ovarian
SW-620 colon = test system: SW-620 colon
HOP-92 NSCLC = test system: HOP-92 NSCLC
IGROV1 ovarian = test system: IGROV1 ovarian
U251 CNS = test system: U251 CNS
OVCAR-8 ovarian = test system: OVCAR-8 ovarian
OVCAR-5 ovarian = test system: OVCAR-5 ovarian
UACC-62 melanoma = test system: UACC-62 melanoma
MDA-MB-231 breast = test system: MDA-MB-231 breast
SNB-78 CNS = test system: SNB-78 CNS
ACHN renal = test system: ACHN renal
DLD-1 colon = test system: DLD-1 colon
T-47D breast = test system: T-47D breast
M14 melanoma = test system: M14 melanoma
786-0 renal = test system: 786-0 renal
COLO 205 colon = test system: COLO 205 colon
KM12 colon = test system: KM12 colon
SF-268 CNS = test system: SF-268 CNS
SF-295 CNS = test system: SF-295 CNS
HOP-18 NSCLC = test system: HOP-18 NSCLC
SN12C renal = test system: SN12C renal
XF 498 CNS = test system: XF 498 CNS
NCI-H522 lung = test system: NCI-H522 lung
HCC-2998 colon = test system: HCC-2998 colon
CAKI-1 renal = test system: CAKI-1 renal
DU-145 prostate = test system: DU-145 prostate
M19-MEL melanoma = test system: M19-MEL melanoma
HCT-116 colon = test system: HCT-116 colon
K-562 leukemia = test system: K-562 leukemia
SK-MEL-2 melanoma = test system: SK-MEL-2 melanoma
MDA-MB-435 = test system: MDA-MB-435
HOP-62 NSCLC = test system: HOP-62 NSCLC
A549 NSCLC = test system: A549 NSCLC
SK-MEL-5 melanoma = test system: SK-MEL-5 melanoma
UACC-257 melanoma = test system: UACC-257 melanoma

O=C(CNc1ccc2c(=S)c3ccccc3[nH]c2c1)Nc1ccccc1-c1ccccc1NC(=O)CNc1ccc2c(=S)c3ccccc3[nH]c2c1
TGI (SNB-75 CNS): 71.9 µM | TGI (RPMI-8226 leukemia): 49.9 µM | TGI (HS 578T breast): > 77.7 µM | TGI (MOLT-4 leukemia): 46.7 µM | TGI (CCRF-CEM leukemia): 22.8 µM | TGI (SNB-19 CNS): 41 µM | TGI (OVCAR-3 ovarian): 55 µM | TGI (KM20L2 colon): 47.4 µM | TGI (MDA-N): > 51.3 µM | TGI (SR leukemia): 41.1 µM | TGI (RXF 393 renal): 56.6 µM | TGI (OVCAR-4 ovarian): 45.2 µM | TGI (EKVX NSCLC): 65.6 µM | TGI (BT-549 breast): 56.7 µM | TGI (UO-31 renal): 31.4 µM | TGI (SF-539 CNS): 52 µM | TGI (SK-MEL-28 melanoma): 41.2 µM | TGI (PC-3 prostate): > 49.8 µM | TGI (LXFL 529 NSCLC): 24.6 µM | TGI (A498 renal): 55.6 µM | TGI (MCF7 breast): > 52.7 µM | TGI (HT29 colon): 48.4 µM | TGI (HCT-15 colon): 49.5 µM | TGI (NCI-H23 lung): 32.3 µM | TGI (NCI-H226 lung): 54.6 µM | TGI (NCI-H460 lung): 36.9 µM | TGI (DMS 273 small cell lung): > 76.3 µM | TGI (TK-10 renal): 43.9 µM | TGI (HL-60(TB) leukemia): 13.4 µM | TGI (LOX IMVI melanoma): 55.6 µM | TGI (MALME-3M melanoma): 31.7 µM | TGI (NCI/ADR-RES ovarian): > 63 µM | TGI (DMS 114 small cell lung): 36.6 µM | TGI (SK-OV-3 ovarian): 48.5 µM | TGI (SW-620 colon): 39.5 µM | TGI (HOP-92 NSCLC): 51.2 µM | TGI (IGROV1 ovarian): 61 µM | TGI (U251 CNS): 42.3 µM | TGI (OVCAR-8 ovarian): 55.7 µM | TGI (OVCAR-5 ovarian): 53.5 µM | TGI (UACC-62 melanoma): 44.3 µM | TGI (MDA-MB-231 breast): > 51.7 µM | TGI (SNB-78 CNS): 82.9 µM | TGI (ACHN renal): 28.5 µM | TGI (DLD-1 colon): 23.9 µM | TGI (T-47D breast): > 50.1 µM | TGI (M14 melanoma): 41.4 µM | TGI (786-0 renal): 32.9 µM | TGI (COLO 205 colon): 35.8 µM | TGI (KM12 colon): 42.7 µM | TGI (SF-268 CNS): 52.8 µM | TGI (SF-295 CNS): 50.8 µM | TGI (HOP-18 NSCLC): 29.9 µM | TGI (SN12C renal): 53.7 µM | TGI (XF 498 CNS): 41.1 µM | TGI (NCI-H522 lung): 24.1 µM | TGI (HCC-2998 colon): 31.5 µM | TGI (CAKI-1 renal): 75.6 µM | TGI (DU-145 prostate): 37.4 µM | TGI (M19-MEL melanoma): > 55.5 µM | TGI (HCT-116 colon): 43.3 µM | TGI (K-562 leukemia): > 53.6 µM | TGI (SK-MEL-2 melanoma): 34.4 µM | TGI (MDA-MB-435): > 52 µM | TGI (HOP-62 NSCLC): 48.4 µM | TGI (A549 NSCLC): 55.5 µM | TGI (SK-MEL-5 melanoma): 35.3 µM | TGI (UACC-257 melanoma): 45.3 µM
